Calls of active or inactive are those of the source.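 Rule for the calls: active = at least one rat sex group has a carcinogenic potency value and tumor site recorded; inconclusive = only rat studies were judged inadequate by the national testing program; inactive = no potency or tumor site, with negative rat experiments.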
Each compound was assayed on rat chronic carcinogenicity bioassay, TD50 (assay: DSSTox (CPDBAS) Carcinogenic Potency Database Summary Rat Bioassay Results). Details: TD50_Rat_Note: TD50 is harmonic mean of more than one positive test; TD50_Rat_mmol was not calculated for this mixture, but Activiity S; TargetSites_Rat_Female: liver; hits give low values.
Outline: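 Chronic long-term rat cancer bioassays from literature and NCI/NTP, taking the most positive result per sex. TD50 in mmol converted to a 1–100 Activity Score from log10(1/TD50). Mixtures lacking TD50 scored 50.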

SMILES	Potency
Clc1ccc(-c2ccc(Cl)c(Cl)c2Cl)c(Cl)c1Cl	2.81 mg/kg/day

Same assay, conditions: TD50_Rat_Note: TD50 is harmonic mean of more than one positive test; TargetSites_Rat_Female: clitoral gland; hematopoietic system; liver; mammary gland; small intestine; vascular system; hits give low values

SMILES	Potency
Cc1nc(N)cc2[nH]c3ccccc3c12	6.66 mg/kg/day

Same assay, conditions: TD50_Rat_Note: TD50 is harmonic mean of more than one positive test; TargetSites_Rat_Female: ear Zymbals gland; liver; vascular system; hits give low values

SMILES	Potency
C=CBr	18.5 mg/kg/day

Same assay, conditions: TD50_Rat_Note: TD50 is harmonic mean of more than one positive test; TargetSites_Rat_Female: esophagus; oral cavity; small intestine; stomach; hits give low values

SMILES	Potency
CCOC(=O)N(CC)N=O	0.0904 mg/kg/day

Same assay, conditions: TD50_Rat_Note: TD50 is harmonic mean of more than one positive test; TargetSites_Rat_Female: hematopoietic system; liver; vascular system; hits give low values

SMILES	Potency
C=C1C/C(=C/C)C(=O)O[C@@H]2CCN3CC=C(COC(=O)[C@@]1(O)CO)[C@H]23	0.119 mg/kg/day

Same assay, conditions: TD50_Rat_Note: TD50 is harmonic mean of more than one positive test; TargetSites_Rat_Female: liver; hits give low values

SMILES	Potency
CC(=O)O[C@H]1CC[C@@]2(C)C(=CC[C@@H]3[C@@H]2CC[C@]2(C)C(=O)CC[C@@H]32)C1	49.6 mg/kg/day
CN(N=O)c1ccc(/C=C/c2ccnc3ccccc23)cc1	0.699 mg/kg/day
O=C(O)[C@@H]1[C@H](C(=O)O)[C@@]2(Cl)C(Cl)=C(Cl)[C@]1(Cl)C2(Cl)Cl	40.8 mg/kg/day
CC(=O)N(O)c1ccc2c(c1)Cc1ccccc1-2	0.988 mg/kg/day
Cc1c(N)nc(C)c2c1[nH]c1ccccc12	0.575 mg/kg/day

Same assay, conditions: TD50_Rat_Note: TD50 is harmonic mean of more than one positive test; TargetSites_Rat_Female: mammary gland; hits give low values

SMILES	Potency
CCNC(=O)N(CCO)N=O	0.562 mg/kg/day

Same assay, conditions: TD50_Rat_Note: TD50 is harmonic mean of more than one positive test; TargetSites_Rat_Female: nasal cavity; hits give low values

SMILES	Potency
C=CCN(CC=C)N=O	33.9 mg/kg/day

Same assay, conditions: TD50_Rat_Note: TD50 is harmonic mean of more than one positive test; TargetSites_Rat_Female: no positive results; hits give low values

SMILES	Potency
ClC=C(Cl)Cl	668 mg/kg/day

Same assay, conditions: TD50_Rat_Note: TD50 is harmonic mean of more than one positive test; TargetSites_Rat_Female: thyroid gland; hits give low values

SMILES	Potency
O=C/C=C/O	122 mg/kg/day

Same assay, conditions: TD50_Rat_Note: TD50 is harmonic mean of more than one positive test; greater than ten-fold variation among TD50 values for positive res; TargetSites_Rat_Female: esophagus; liver; oral cavity; stomach; hits give low values

SMILES	Potency
CCN(CC)N=O	0.0265 mg/kg/day

Same assay, conditions: TD50_Rat_Note: TD50 is harmonic mean of more than one positive test; greater than ten-fold variation among TD50 values for positive res; TargetSites_Rat_Female: liver; hits give low values

SMILES	Potency
COC(N)=O	56.6 mg/kg/day
CC(C)(Oc1ccc(C2CCCc3ccccc32)cc1)C(=O)O (stereo not given)	11 mg/kg/day

Same assay, conditions: TD50_Rat_Note: TD50 is harmonic mean of more than one positive test; greater than ten-fold variation among TD50 values for positive res; TargetSites_Rat_Female: nervous system; stomach; hits give low values

SMILES	Potency
C1CO1	21.3 mg/kg/day

Same assay, conditions: TD50_Rat_Note: TD50 is harmonic mean of more than one positive test; harmonic mean of TD50 includes a value for upper 99% confidence li; TargetSites_Rat_Female: liver; hits give low values

SMILES	Potency
CC/C(=C(\c1ccccc1)c1ccc(OCCN(C)C)cc1)c1ccccc1	3.96 mg/kg/day

Same assay, conditions: TD50_Rat_Note: TD50 is harmonic mean of more than one positive test; harmonic mean of TD50 includes a value for upper 99% confidence li; hits give low values

SMILES	Potency
CCSCCC(N)C(=O)O (stereo not given)	9.76 mg/kg/day

Same assay, conditions: TD50_Rat_Note: TD50 value is overestimated as upper 99% confidence limit from study with 100% tumor incidence but no lifetable; harmoni; hits give low values

SMILES	Potency
COc1cc(O)c2c(=O)c3c(OC)cc4c(c3oc2c1OC)C1C=COC1O4 (stereo not given)	0.364 mg/kg/day

Same assay, conditions: TD50_Rat_Note: no positive results

SMILES	outcome
CC1(C)OC(=O)NC1=O	inactive; no positive results
CC[C@]1(O)CC2CN(CCc3c([nH]c4ccccc34)[C@@](C(=O)OC)(c3cc4c(cc3OC)N(C)[C@H]3[C@@](O)(C(=O)OC)[C@H](OC(C)=O)[C@]5(CC)C=CCN6CC[C@]43[C@@H]65)C2)C1 (stereo not given in full)	inactive; no positive results
O=C1CCN([C@@H]2O[C@H](CO)[C@@H](O)[C@H]2O)C(=O)N1	inactive; no positive results
NCCc1ccc(O)c(O)c1	inactive; no positive results
COc1cc(OC)c2c3c(c(=O)oc2c1)CCC3	inactive; no positive results
CSCCC(N)C(=O)O (stereo not given)	inactive; no positive results
Cc1cccc(N)c1	inactive; no positive results
O=C(O)c1cc(O)c(O)c(O)c1	inactive; no positive results
OC(O)C(Cl)(Cl)Cl	inactive; no positive results
c1ccc2c(c1)[nH]c1cnccc12	inactive; no positive results
Nc1nc(N)nc(-c2cc(Cl)ccc2Cl)n1	inactive; no positive results
CN(N=O)C(=O)c1ccccc1C(=O)N(C)N=O	inactive; no positive results
CN(C)C(=O)COC(=O)Cc1ccc(OC(=O)c2ccc(N=C(N)N)cc2)cc1	inactive; no positive results
CN(N=O)c1ccc([N+](=O)[O-])cc1	inactive; no positive results

Same assay, conditions: TD50_Rat_Note: no positive results; TargetSites_Rat_BothSexes: no positive results

SMILES	outcome
[O]=[Bi]	inactive
CC(=O)C(N=Nc1ccc(Cl)cc1Cl)C(=O)Nc1ccc(-c2ccc(NC(=O)C(N=Nc3ccc(Cl)cc3Cl)C(C)=O)c(C)c2)cc1C (stereo not given)	inactive
O=[As](O)(O)O	inactive
O=C(OOC(=O)c1ccccc1)c1ccccc1	inactive

Same assay, conditions: TD50_Rat_Note: no positive results; TargetSites_Rat_Female: no positive results

SMILES	outcome
C[C@@H]1O[C@@H](OC[C@H]2O[C@@H](Oc3c(-c4ccc(O)c(O)c4)oc4cc(O)cc(O)c4c3=O)[C@H](O)[C@@H](O)[C@@H]2O)[C@H](O)[C@H](O)[C@H]1O	inactive; no positive results
Nc1nc(N)c2nc(-c3ccccc3)c(N)nc2n1	inactive; no positive results
CC1=C(/C=C/C(C)=C/C=C/C(C)=C/C(=O)O)C(C)(C)CCC1	inactive; no positive results
Nc1cc(Cl)c(N)c(Cl)c1	inactive; no positive results
Cn1cc(OCC(O)CNC(C)(C)C)c2ccccc2c1=O (stereo not given)	inactive; no positive results
NC1=NC(=O)C(c2ccccc2)O1 (stereo not given)	inactive

Source: PubChem BioAssay AID1208 (EPA DSSTox, 2008)
